Molecules are shown by their SMILES.

Drawing on the METLIN SMRT retention time set (Domingo-Almenara et al. 2019), this text covers RP-LC retention time for 78 compounds.

A short description of the series: gradient 5% acetonitrile 3 min, to 50% in 2 min, to 85% in 15 min, held 3 min, 100 µL/min. To be noted: column: Zorbax Extend-C18 2.1 x 50 mm; eluents: water / acetonitrile, 0.1% formic acid. The gist of the method:
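Each retention time is based on an adduct peak selected computationally and verified by manual inspection. Measurements used HPLC–quadrupole time-of-flight mass spectrometry in positive and negative ionization mode on mixtures of ~100 pure standards. Chromatography ran on a Zorbax Extend-C18 column (2.1 × 50 mm, 1.8 μm) at 100 μL/min with water and acetonitrile, each containing 0.1% formic acid, and dead and dwell volumes of 40 μL and 900 μL.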
As to `COc1ccc(Cc2nc(-c3ccc4c(c3)nnn4CCC(=O)N3CCCC3)no2)cc1`, the RP-LC retention time stood at 839 s. To `COc1ccc(-c2cc(C(F)(F)F)n3nc(C(=O)O)cc3n2)cc1` belongs 851 s; to `Cc1cnc(C(=O)N(C)C2CCc3nn(CC4CC4)c(=O)n3CC2)cn1` (stereo not drawn), 618 s. Compound `O=C(O)c1cc(NS(=O)(=O)c2ccccc2C(F)(F)F)cc(C(=O)O)c1` registered an RP-LC retention time of 660 s. For `CCN1C(=O)c2cccnc2Sc2cc(NC(=O)c3ccccc3F)ccc21` the value was 834 s. Regarding `O=C(c1cccnc1)N1CCC(COCc2ccccc2)CC1`, the RP-LC retention time stood at 747 s. `Cc1ccccc1Nc1c(-c2cc(Br)ccc2F)nc2c(C)cccn12` gave an RP-LC retention time of 843 s.

Take `Cn1cc(C(=O)C(=O)NC2CCCCC2)c2ccccc21`: the RP-LC retention time is 1070 s. Compound `O=C(Cc1nnc2c(-c3nc(C4CC4)no3)cccn12)N1CCOCC1` showed an RP-LC retention time of 609 s. On to `COCc1cc(=O)n(CC(=O)Nc2ccc(F)c(Cl)c2)c(N2CCOCC2)n1`, for which the RP-LC retention time is 917 s. For `CCc1cccc(NC(=O)C2CCCN(c3nnc4ccccn34)C2)c1` (stereo not drawn) the value was 734 s; for `Cc1ccc2c(c1)N(C(=O)Cn1c(=O)c(CCC(=O)NCC(C)C)nc3ccccc31)CCO2`, 884 s. For `Cc1ccc(Cn2c(=O)c(N3CCCC(C(=O)NCCc4c(C)noc4C)C3)nc3ccccc32)cc1` (stereo not drawn) the value was 1080 s; for `COc1ccc(-c2csc(NC(=O)Cn3c(=O)sc4ccccc43)n2)cc1`, 951 s. To `CC(=O)N1CCCSc2ccc(S(=O)(=O)N(C)c3ccc(C)cc3)cc21` belongs 937 s; to `C=Cc1ccc(Cn2ccn(-c3cccc(Cl)c3C)c(=O)c2=O)cc1`, 843 s. `O=C(c1ccc(Br)o1)N1CCC(c2cnn(-c3ccccc3)c2)CC1` came in with an RP-LC retention time of 957 s.

`COc1ccc(Cl)cc1NC(=O)c1cnc2c(c1)c(=O)n(C)c(=O)n2-c1ccccc1` displayed an RP-LC retention time of 1010 s. The compound `CCOc1ccc(-c2noc(Cn3c(=O)n(Cc4ccccc4)c(=O)c4sccc43)n2)cc1OC` came in with an RP-LC retention time of 1110 s. To `Cc1ccc2nc(-c3cccc(Cl)c3)c(Nc3ccc4c(c3)OCCO4)n2c1` belongs 724 s; to `CN(C(=O)C1CCCN(c2ncnc3c2nc2n3CCCCC2)C1)c1ccccc1Cl` (stereo not drawn), 846 s. For `Cn1cnc2c(C(=O)NC3CCCCC3)nn(-c3cccc(Cl)c3)c2c1=O`, the RP-LC retention time came to 975 s. For `O=C(NCCc1ccco1)c1c(-c2ccccc2)nnc2ccccc12` the value was 784 s; for `CCOC(=O)C1CCN(C(=O)C2CCCN(c3cnc4nc(C)c(C)nc4c3)C2)CC1` (stereo not drawn), 689 s. To `Cn1nc(-c2nnc(-c3ccc(F)cc3)o2)c2c1CCN(S(=O)(=O)c1ccc(C(C)(C)C)cc1)C2` belongs 1180 s; to `O=S(=O)(Cc1ccccc1F)N1CCCC(Cn2c(C3CC3)nc3cccnc32)C1` (stereo not drawn), 732 s. To `CCCn1cc(C(=O)NC2CCCC2)c2nn(-c3ccccc3)c(=O)c-2c1` belongs 738 s; to `O=C(Cc1cccc2ccccc12)Nc1c(-c2ccccc2)nc2ccccn12`, 708 s; to `COc1ccc(-c2cn3c(n2)N(C(=O)c2cccs2)CCC3)cc1`, 883 s. For `NS(=O)(=O)c1ccc(CCNCc2ccc(-c3cccc(Cl)c3)o2)cc1`, the RP-LC retention time was 675 s. `CC(C)(C)C(=O)N1CCC(C(=O)Nc2ccc(S(=O)(=O)N3CCCC3)cc2)CC1` had an RP-LC retention time of 792 s.

In the case of `O=C(NCCCn1c(-c2ccncc2)nc2cccnc21)NCCc1ccccc1`, the RP-LC retention time turned out to be 649 s. To `COc1cc2[nH]c3c(SCC(=O)N4CCc5ccccc5C4)ncnc3c2cc1OC` belongs 744 s; to `Cn1cc(CN2CCC(C(=O)NCc3ccccc3)CC2)c2cc(Cl)ccc21`, 714 s; to `COc1ccc(CC(=O)N2CCN(S(=O)(=O)c3cc4c5c(c3)CCC(=O)N5CCC4)CC2)cc1`, 786 s. To `O=C(Cn1nc2c(Oc3cccc(F)c3)nccn2c1=O)Nc1ccccc1` belongs 810 s. To `Cc1cc(NC(=O)C2CCN(C(=O)c3c[nH]c4ccccc34)CC2)no1` belongs 639 s.

`Cc1cc(-c2nnc(NC(=O)Cn3cnc4c3c(=O)n(C)c(=O)n4C)o2)n(C)n1` came in with an RP-LC retention time of 580 s. To `Cn1nc(-c2nnc(-c3ccccc3F)o2)c2c1CCN(S(=O)(=O)c1ccc(C#N)cc1)C2` belongs 894 s; to `Cc1cccc(NC(=O)COc2cccc3c(=O)n(C)ccc23)c1`, 798 s.

`Cc1ccc(-c2ccnc3nc(-c4ccccc4)nn23)cc1`: the RP-LC retention time was 1020 s.

As to `Cc1cccc(C(=O)Nc2nc(-c3ccc4c(c3)NC(=O)CO4)c(C)s2)c1`, the RP-LC retention time is 918 s. Compound `Cc1oc(C2CCN(S(=O)(=O)Cc3ccccc3)CC2)nc1C(=O)N1CCOCC1` had an RP-LC retention time of 759 s. To `O=C(NCCc1noc(C2CC2)n1)C1CCC1` belongs 651 s. To `Cn1cc2c3c(cccc31)CN(C(=O)C1CCC1)CC2` belongs 878 s; to `CNC(=O)C(=O)NCC1CCN(S(C)(=O)=O)CC1`, 541 s. `Cc1cccc(NC(=O)Cn2c(=O)c3cc(C4CC4)nn3c3ncccc32)c1` had an RP-LC retention time of 789 s. For `CCCNC(=O)c1cn(-c2ccc(NC(=O)CC)cn2)cn1` the value was 636 s; for `Cc1cc(C)c2c(N3CCCCC3)nc(C(=O)N3CCOCC3)nc2n1`, 608 s. For `Cc1ccc(CSc2nc(CC(=O)Nc3ccc(-n4cnnn4)cc3)cs2)cc1` the value was 868 s; for `CSCC[C@H](NC(=O)C(C)Oc1cc(C)cc2oc(=O)c3c(c12)CCCC3)C(=O)O` (stereo partly drawn), 860 s; for `CSc1ccccc1NC(=O)c1cnc2ccc(C)cn2c1=O`, 806 s. For `CCOC(=O)c1ccc2nc(NC(=O)c3ccn(C)n3)sc2c1` the value was 828 s. `CCN(Cc1ccccc1)C(=O)C1CCN(S(=O)(=O)c2ccc3c(c2)sc(=O)n3CC)CC1` registered an RP-LC retention time of 953 s. The compound `O=C(CN1C(=O)CCc2cc(Br)ccc21)NCCN1CCc2ccccc2C1` registered an RP-LC retention time of 662 s. For `CC(=O)NCCc1csc(C2CCN(C(=O)C3(c4ccccc4)CC3)CC2)n1` the value was 651 s. With `O=C(NCC(=O)N1CC[C@H](NC2CCC(O)(c3ccc(-c4ncccn4)cn3)CC2)C1)c1cccc(C(F)(F)F)c1` (stereo partly drawn), the RP-LC retention time turned out to be 674 s. To `CCCNC(=O)C1CCCN(c2ccc(SCC(=O)Nc3ccccc3C(=O)OCC)nn2)C1` (stereo not drawn) belongs 750 s. To `COc1ccc2[nH]c(=O)c(CCC(=O)NCc3nc4ccccc4n3C)cc2c1` belongs 577 s.

Consider `Cc1ccc(CCNC(=O)C2CCN(C(=O)c3sccc3-n3cccc3)CC2)cc1`, for which the RP-LC retention time was 882 s. To `COc1ccc(NS(=O)(=O)c2cc3c(s2)CCN(C(=O)C2CC2)C3)cc1F` belongs 762 s; to `CCc1ccc(NC(=O)C2CCN(S(C)(=O)=O)c3ccccc3O2)cc1` (stereo not drawn), 912 s; to `O=C(Cn1cccc1-c1nc(-c2ccc3c(c2)OCO3)no1)Nc1ccc(Cl)cc1F`, 738 s. Take `Cc1ccc(C)c(S(=O)(=O)N2CCC3(CC2)NCCCN=C3NC2CCCCC2)c1`: the RP-LC retention time is 648 s. To `CCc1ccc(C(=O)N2CCCN(C3=NS(=O)(=O)C(c4ccccc4)=C3C)CC2)cc1` belongs 894 s; to `COc1ccc(NC(=O)N(C)CCc2noc(COc3ccc(F)cc3)n2)cc1`, 692 s. Compound `Cn1nc(-c2nnc(-c3ccccc3)o2)c2c1CCN(S(=O)(=O)c1ccc(C(C)(C)C)cc1)C2` showed an RP-LC retention time of 1150 s.

`CCC(=O)N1CCN(c2nc3c(s2)CC(C(=O)NC(CC)CC)CC3)CC1` (stereo not drawn) registered an RP-LC retention time of 546 s.

In turn, `CCCCN1C(=O)C(C)(C(=O)NCc2ccc(C)cc2)Oc2cccnc21` (stereo not drawn) registered an RP-LC retention time of 1040 s. For `CCc1ccc(NC(=O)C2CCCN(c3nccnc3Sc3ccc(C)cc3)C2)cc1` (stereo not drawn) the value was 1290 s; for `CN(CCc1noc(COc2ccc(Cl)cc2)n1)C(=O)Nc1ccc(F)cc1`, 934 s; for `CCOC(=O)c1c(S(=O)(=O)N2CCC(C(=O)Nc3ccccc3OC)CC2)c(C)n(C)c1C`, 850 s.

For the compound `O=C(Nc1cccc(F)c1)N1CCCC1c1nc(-c2cccc(F)c2)no1` (stereo not drawn), the RP-LC retention time was determined as 994 s.

As to `Cc1cccc(CC(=O)N2C[C@@H]3C[C@H](NC(=O)c4cccs4)[C@H]2C3)c1`, the RP-LC retention time was determined as 787 s. For `Cc1cc(OCC(=O)N[C@H](C(=O)O)C(C)C)c2c3c(c(=O)oc2c1)CCCC3` the value was 837 s; for `CC(C)N1C(=O)c2cccnc2Sc2cc(C(=O)NCC3CCCO3)ccc21` (stereo not drawn), 695 s. Take `Cc1ccc(-c2nc3nc(C)cc(NC(C)C)n3n2)cc1`: the RP-LC retention time stood at 782 s. For `CCc1cccc(C)c1NC(=O)C1Cc2cc(S(=O)(=O)N3CCCCC3)ccc2N1C(C)=O` (stereo not drawn) the value was 900 s.
